Laboratory results: US6893846B2, “Primers for use in detecting beta-lactamases” (priority 1998, dated 2005)

Legend:
SHV and TEM genes [1] = test: PCR amplification with TEM and SHV primers; set-up: species or system Klebsiella pneumoniae
Protocol: (§1) The organisms were inoculated into 5 ml of Luria Bertani (LB) broth (Difco, Detroit, Mich.) and incubated for 20 hours at 37° C. with shaking. Cells from 1.5 ml of overnight culture were harvested by centrifugation at 17,310×g in an Hermle centrifuge for 5 minutes. After the supernatant was decanted, the pellet was resuspended in 500 μl of distilled water. The cells were lysed by heating at 95° C. for 10 minutes and cellular debris was removed by centrifugation for 5 minutes at 17,310×g. The supernatant was used as source of template for amplification.
(§2) The following oligonucleotide primers specific for the SHV and TEM genes were designed by using MacVector version 4.5 (Kodak/IBI): SHV genes: A [5′-([…])-3′] (SEQ ID NO:10) and B [5′-([…])-3′] (SEQ ID NO:11) corresponding to nucleotide numbers 103 to 121 and 988 to 970, respectively, of Mercier et al., Antibicrob. Agents Chemother. 34:1577-1583 (1990)); TEM genes: C [5′-([…])-3′ (SEQ ID NO:5) and D [5′-([…])-3′ (SEQ ID NO:1) corresponding to nucleotide numbers 90 to 105 and 1062 to 1042, respectively, of Sutcliff et al., Proc. Nat. Aca. Sci. USA, 75:3737-3741 (1978). Primers A and B amplified a 885 base pair fragment while primers C and D amplified a 971 base pair fragment. The specificity of the SHV and TEM primers for amplification of SHV and TEM genes respectively was tested by using the following beta-lactamase controls; TEM-I (pACYC177), MIR-1 (from K. pneumoniae96D) and SHV-7 (pCLL3410).
PCR amplifications were carried out on a DNA Thermal Cycler 480 instrument (Perkin-Elmer, Cetus, Norwalk, Conn.) using the Gene Amp DNA amplification kit containing AmpliTaq polymerase (Perkin Elmer, Roche Molecular Systems, Inc., Branchburg, N.J.). The composition of the reaction mixture was as follows: 10 mM Tris-HCl (pH 8.3), 50 mM KCl, 0.1% TRITON X-100, 1.5 mM MgCl2, 0.2 mM (each) of the four deoxynucleoside triphosphates, and 1.2 U of AmpliTaq in a total volume of 49 μl. A total of 1 μl of sample lysate was added to the reaction mixture, and was centrifuged briefly before […] of mineral oil was layered on the surface. The PCR program consisted of an initial denaturation step at 96° C. for 15 seconds; followed by 24 cycles of DNA denaturation at 96° C. for 15 seconds, primer annealing at 50° C. for 15 seconds and primer extension at 72° C. for 2 minutes. After the last cycle the products were stored at 4° C. The PCR products (1/10 volume) were analyzed by electrophoresis using 1.4% agarose gels in TAE buffer (0.04 M Tris-acetate, 0.002 M EDTA [pH 8.5]). The gels were stained with ethidium bromide and the PCR products were visualized with ultra-violet light. […] The larger product which corresponded to the expected size of the SHV specific product was gel purified using a 1.4% agarose in TAE gel and the purified PCR product was used for sequence analysis.

SHV and TEM genes [2] = test: PCR amplification with TEM and SHV primers; set-up: species or system Proteus mirabilis; conditions: P. mirabilis Pit 85 (pI 5.6, TEM-26-type)
Protocol: as §1
The following oligonucleotide primers specific for the SHV and TEM genes were designed by using MacVector version 4.5 (Kodak/IBI): SHV genes: A [5′-([…])-3′] (SEQ ID NO:10) and B [5′-([…])-3′] (SEQ ID NO:11) corresponding to nucleotide numbers 103 to 121 and 988 to 970, respectively, of Mercier et al., Antibicrob. Agents Chemother. […]
PCR amplifications were carried out on a DNA Thermal Cycler 480 instrument (Perkin-Elmer, Cetus, Norwalk, Conn.) using the Gene Amp DNA amplification kit containing AmpliTaq polymerase (Perkin Elmer, Roche Molecular Systems, Inc., Branchburg, N.J.). […] The PCR products (1/10 volume) were analyzed by electrophoresis using 1.4% agarose gels in TAE buffer (0.04 M Tris-acetate, 0.002 M EDTA [pH 8.5]). […]

SHV and TEM genes [3] = test: PCR amplification with TEM and SHV primers; set-up: species or system Escherichia coli
Protocol: as §1, §2
PCR amplifications were carried out on a DNA Thermal Cycler 480 instrument (Perkin-Elmer, Cetus, Norwalk, Conn.) using the Gene Amp DNA amplification kit containing AmpliTaq polymerase (Perkin Elmer, Roche Molecular Systems, Inc., Branchburg, N.J.). The composition of the reaction mixture was as follows: 10 mM Tris-HCl (pH 8.3), 50 mM KCl, 0.1% TRITON X-100, 1.5 mM MgCl2, 0.2 mM (each) of the four deoxynucleoside triphosphates, and 1.2 U of AmpliTaq in a total volume of 49 μl. A total of 1 μl of sample lysate was added to the reaction mixture, and was centrifuged briefly before […] of mineral oil was layered on the surface. The PCR program consisted of an initial denaturation step at 96° C. for 15 seconds; followed by 24 cycles of DNA denaturation at 96° C. for 15 seconds, primer annealing at 50° C. for 15 seconds and primer extension at 72° C. for 2 minutes. After the last cycle the products were stored at 4° C. The PCR products (1/10 volume) were analyzed by electrophoresis using 1.4% agarose gels in TAE buffer (0.04 M Tris-acetate, 0.002 M EDTA [pH 8.5]). The gels were stained with ethidium bromide and the PCR products were visualized with ultra-violet light. […]

[4] = tested on: K. pneumoniae and A. hydrophila wound infection; conditions: one patient, intravenous, after four weeks of therapy

Substance | Amplification with primers (SHV and TEM genes [1]; K. pneumoniae Pit 16 (pI 5.6, TEM-26-type)) | Amplification with primers (SHV and TEM genes [1]; K. pneumoniae Pit 82 (pI 8.2, SHV-5)) | Amplification with primers (SHV and TEM genes [1]; K. pneumoniae Pit 100 (pI 7.6, SHV-2)) | Amplification with primers (SHV and TEM genes [2]) | Amplification with primers (SHV and TEM genes [3]; E. coli Pit 56 (pI 7.6, SHV-2)) | Amplification with primers (SHV and TEM genes [3]; E. coli Pit 64 (pI 5.6, TEM-26-type)) | clinical outcome of therapy [4]
TEM primers: primer pair C (SEQ ID NO:5) and D (SEQ ID NO:1) specific for the TEM genes (DNA 1 TCGGGGAAATGTGCG; DNA 2 TGCTTAATCAGTGAGGCACC; listed as DNA, chemistry not given here) | Yes | No | No | Yes | No | Yes | –
imipenem/cilastatin | – | – | – | – | – | – | all signs of inflammation resolved
